Measurements taken from US12018021B2 (UCB Biopharma SRL, priority 2018, dated 2024).

Target: IgE-Tb / FcεRIα-Y131A-AF488 (Homo sapiens, UniProt P01854)
Test: IgE-Tb / FcεRIα-Y131A-AF488 FRET assay (protocol for examples 1 to 233)
Assay type: binding
Conditions: examples 1 to 233: 5 nM IgE-Tb, 25 nM FcεRIα-Y131A-AF488, incubated 2 hours at room temperature; read-out: Y131A FRET IC50 range
How it was run: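 Compounds (top final concentration usually 10 μM, 3-fold, 10 points, 2% DMSO) incubated 2 h at room temperature with IgE-Tb (5 nM) and FcεRIα-Y131A-AF488 (25 nM). Background from 200 nM unlabelled receptor subtracted; FRET ratio 520/495 nm after 330 nm excitation gave percent inhibition, fitted four-parameter for IC50.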

Chain of IgE-Tb / FcεRIα-Y131A-AF488 (P01854 1-427 limits assumed, stated change not applied): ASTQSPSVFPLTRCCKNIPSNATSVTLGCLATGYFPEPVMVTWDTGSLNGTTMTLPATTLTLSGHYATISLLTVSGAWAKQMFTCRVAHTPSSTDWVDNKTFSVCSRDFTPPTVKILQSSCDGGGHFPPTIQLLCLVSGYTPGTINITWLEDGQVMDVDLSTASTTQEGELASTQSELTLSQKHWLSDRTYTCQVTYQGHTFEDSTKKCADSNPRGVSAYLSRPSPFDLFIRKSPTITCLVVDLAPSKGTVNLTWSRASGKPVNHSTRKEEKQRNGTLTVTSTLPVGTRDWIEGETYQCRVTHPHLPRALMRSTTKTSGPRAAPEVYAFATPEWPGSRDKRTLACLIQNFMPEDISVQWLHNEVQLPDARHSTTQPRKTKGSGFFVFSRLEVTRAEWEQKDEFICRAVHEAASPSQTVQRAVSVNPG

SMILES	IC50 [nM]
CCN/C(=N\[N+](=O)[O-])N[C@@H]1CCc2sc(NC(=O)C3CC3)c(C(=O)NCC3CC3)c2C1 [Example 146, (5R)-2-(Cyclopropanecarbonylamino)-N-(cyclopropylmethyl)-5-[[(E)-N-ethyl-N′-nitro-carbamimidoyl]amino]-4,5,6,7-tetrahydrobenzothiophene-3-carboxamide]	10000 to 50000
CC1Cc2c(sc(NC(=O)C3CC3)c2C(=O)NCC2CC2)C(C)C1 (centres unmarked) [Example 81, 2-(Cyclopropanecarbonylamino)-N-(cyclopropylmethyl)-5,7-dimethyl-4,5,6,7-tetrahydrobenzothiophene-3-carboxamide]	1000 to 10000
Nc1ncccc1C1CCc2sc(NC(=O)C3CC3)c(C(=O)NCC3CC3)c2C1 (centres unmarked) [Example 62, 5-(2-Amino-3-pyridyl)-2-(cyclopropanecarbonylamino)-N-(cyclopropylmethyl)-4,5,6,7-tetrahydrobenzothiophene-3-carboxamide]	< 1000
Cc1noc(C2CCc3sc(NC(=O)C4CC4)c(C(=O)NCC4CC4)c3C2)n1 (centres unmarked) [Example 71, 2-(Cyclopropanecarbonylamino)-N-(cyclopropylmethyl)-5-(3-methyl-1,2,4-oxadiazol-5-yl)-4,5,6,7-tetrahydrobenzothiophene-3-carboxamide]	1000 to 10000
O=C1CC(c2cccc(NC(=O)C3CCc4sc(NC(=O)C5CC5)c(C(=O)NCC5CC5)c4C3)c2)CN1 (centres unmarked) [Example 42, 2-(Cyclopropanecarbonylamino)-N3-(cyclopropylmethyl)-N5-[3-(5-oxopyrrolidin-3-yl)phenyl]-4,5,6,7-tetrahydrobenzothiophene-3,5-dicarboxamide]	< 1000
CCNC(=N[N+](=O)[O-])NC1CCc2sc(NC(=O)C3CC3)c(C(=O)NCC3CC3)c2C1 (centres unmarked) [Example 123, 2-(cyclopropanecarbonylamino)-N-(cyclopropylmethyl)-5-[(N-ethyl-N′-nitro-carbamimidoyl)amino]-4,5,6,7-tetrahydrobenzothiophene-3-carboxamide]	< 1000
CC1CC1C(=O)Nc1sc2c(c1C(=O)NCC1CC1)CCCC2 (single isomer, unassigned) [Example 90, N-(cyclopropylmethyl)-2-[(2-methylcyclopropanecarbonyl)amino]-4,5,6,7-tetrahydrobenzothiophene-3-carboxamide]	1000 to 10000
CNC(=O)c1ncn([C@H]2CCc3sc(NC(=O)C4CC4)c(C(=O)NCC4CC4)c3C2)c1N [Example 153, 5-amino-1-[(5S)-2-cyclopropaneamido-3-[(cyclopropylmethyl)carbamoyl]-4,5,6,7-tetrahydro-1-benzothiophen-5-yl]-N-methyl-1H-imidazole-4-carboxamide]	< 1000
CC(C)CNc1nncn1C1CCc2sc(NC(=O)C3CC3)c(C(=O)NCC3CC3)c2C1 (stereo in doubt) [Example 111, (5S)-2-(Cyclopropanecarbonylamino)-N-(cyclopropylmethyl)-5-[3-(isobutylamino)-1,2,4-triazol-4-yl]-4,5,6,7-tetrahydrobenzothiophene-3-carboxamide]	< 1000
O=C(NCC1CC1)c1c(NC(=O)C2CC2)sc2c1C[C@@H](n1cnnc1Nc1ccncc1)CC2 [Example 115, (5S)-2-(Cyclopropanecarbonylamino)-N-(cyclopropylmethyl)-5-[3-(4-pyridylamino)-1,2,4-triazo-4-yl]-4,5,6,7-tetrahydrobenzothiophene-3-carboxamide]	< 1000
NC(=NO)NC1CCc2sc(NC(=O)C3CC3)c(C(=O)NCC3CC3)c2C1 (centres unmarked) [Example 176, 2-(Cyclopropanecarbonylamino)-N-(cyclopropylmethyl)-5-[[N′-hydroxycarbamimidoyl]amino]-4,5,6,7-tetrahydrobenzothiophene-3-carboxamide]	< 1000
CCNC(=NC#N)NC1CCc2sc(NC(=O)C3CC3)c(C(=O)NCC3CC3)c2C1 (centres unmarked) [Example 144, 5-[[N′-Cyano-N-ethyl-carbamimidoyl]amino]-2-(cyclopropanecarbonylamino)-N-(cyclopropylmethyl)-4,5,6,7-tetrahydrobenzothiophene-3-carboxamide]	< 1000
CCOC(=O)c1ncn([C@H]2CCc3sc(NC(=O)C4CC4)c(C(=O)NCC4CC4)c3C2)c1N [Example 117, Ethyl 5-amino-1-[(5S)-2-(cyclopropanecarbonylamino)-3-(cyclopropylmethylcarbamoyl)-4,5,6,7-tetrahydrobenzothiophen-5-yl]imidazole-4-carboxylate]	< 1000
CCOc1c(NC2CCc3sc(NC(=O)C4CC4)c(S(=O)(=O)NCC4CC4)c3C2)c(=O)c1=O (centres unmarked) [Example 36, N-[3-(Cyclopropylmethylsulfamoyl)-5-[(2-ethoxy-3,4-dioxo-cyclobuten-1-yl)amino]-4,5,6,7-tetrahydrobenzothiophen-2-yl]cyclopropanecarboxamide]	< 1000
CC(C)CNS(=O)(=O)c1c(NC(=O)C2CC2)sc2c1CC(Nc1ncccn1)CC2 (centres unmarked) [Example 23, N-[3-(Isobutylsulfamoyl)-5-(pyrimidin-2-ylamino)-4,5,6,7-tetrahydrobenzothiophen-2-yl]cyclopropanecarboxamide]	< 1000
O=C(NCC1CC1)c1c(NC(=O)C2CC2)sc2c1CC1(CC2)OCCO1 [Example 86, 2′-(Cyclopropanecarbonylamino)-N-(cyclopropylmethyl)spiro[1,3-dioxolane-2,5′-6,7-dihydro-4H-benzothiophene]-3′-carboxamide]	< 1000
CCNc1nnc(C)n1C1CCc2sc(NC(=O)C3CC3)c(C(=O)NCC3CC3)c2C1 (centres unmarked) [Example 188, 2-(Cyclopropanecarbonylamino)-N-(cyclopropylmethyl)-5-[3-(ethylamino)-5-methyl-1,2,4-triazol-4-yl]-4,5,6,7-tetrahydrobenzothiophene-3-carboxamide]	< 1000
CCNc1nnc(COC)n1C1CCc2sc(NC(=O)C3CC3)c(C(=O)NCC3CC3)c2C1 (centres unmarked) [Example 179, 2-(Cyclopropanecarbonylamino)-N-(cyclopropylmethyl)-5-[3-(ethylamino)-5-(methoxymethyl)-1,2,4-triazol-4-yl]-4,5,6,7-tetrahydrobenzothiophene-3-carboxamide]	1000 to 10000
CS(=O)(=O)NC1CCc2sc(NC(=O)C3CC3)c(C(=O)NCC3CC3)c2C1 (centres unmarked) [Example 207, 2-(Cyclopropanecarbonylamino)-N-(cyclopropylmethyl)-5-(methanesulfonamido)-4,5,6,7-tetrahydrobenzothiophene-3-carboxamide]	< 1000
NC(=O)c1ncn([C@H]2CCc3sc(NC(=O)C4CC4)c(C(=O)NCC4CC4)c3C2)c1N [Example 154, 5-amino-1-[(5S)-2-cyclopropaneamido-3-[(cyclopropylmethyl)carbamoyl]-4,5,6,7-tetrahydro-1-benzothiophen-5-yl]-1H-imidazole-4-carboxamide]	< 1000
CONC(=NC#N)NC1CCc2sc(NC(=O)C3CC3)c(C(=O)NCC3CC3)c2C1 (centres unmarked) [Example 208, 5-[[N′-Cyano-N-methoxy-carbamimidoyl]amino]-2-(cyclopropanecarbonylamino)-N-(cyclopropylmethyl)-4,5,6,7-tetrahydrobenzothiophene-3-carboxamide]	< 1000
O=C(NCC1CC1)c1c(NC(=O)C2CC2)sc2c1CC(Nc1nc(=O)cc[nH]1)CC2 (centres unmarked) [Example 203, 2-(Cyclopropanecarbonylamino)-N-(cyclopropylmethyl)-5-[(4-oxo-1H-pyrimidin-2-yl)amino]-4,5,6,7-tetrahydrobenzothiophene-3-carboxamide]	< 1000
O=C(NCC1CC1)c1c(NC(=O)C2CC2)sc2c1CC(C(=O)Nc1cccc3[nH]ncc13)CC2 (centres unmarked) [Example 44, 2-(Cyclopropanecarbonylamino)-N3-(cyclopropylmethyl)-N5-(1H-indazol-4-yl)-4,5,6,7-tetrahydrobenzothiophene-3,5-dicarboxamide; 2,2,2-trifluoroacetic acid]	< 1000
O=C(NCC1CC1)c1c(NC(=O)C2CC2)sc2c1C[C@@H](n1cnnc1Nc1ccc[n+]([O-])c1)CC2 [Example 125, (5S)-2-(Cyclopropanecarbonylamino)-N-(cyclopropylmethyl)-5-[3-[(1-oxidopyridin-1-ium-3-yl)amino]-1,2,4-triazol-4-yl]-4,5,6,7-tetrahydrobenzothiophene-3-carboxamide]	< 1000
Cc1ccc(NC2=NS(=O)(=O)N=C2NC2CCc3sc(NC(=O)C4CC4)c(C(=O)NCC4CC4)c3C2)cc1 (centres unmarked) [Example 169, 2-(Cyclopropanecarbonylamino)-N-(cyclopropylmethyl)-5-[[4-(4-methylanilino)-1,1-dioxo-1,2,5-thiadiazol-3-yl]amino]-4,5,6,7-tetrahydrobenzothiophene-3-carboxamide]	< 1000
O=C(NCC1CC1)c1c(NC(=O)C2CC2)sc2c1C[C@@H](Nc1ncc[nH]1)CC2 [Example 166, (5S)-2-(Cyclopropanecarbonylamino)-N-(cyclopropylmethyl)-5-(1H-imidazol-2-ylamino)-4,5,6,7-tetrahydrobenzothiophene-3-carboxamide]	< 1000
O=C(NCC1CC1)c1c(NC(=O)C2CC2)sc2c1CC(n1cnnn1)CC2 (centres unmarked) [Example 198, 2-(Cyclopropanecarbonylamino)-N-(cyclopropylmethyl)-5-(tetrazol-1-yl)-4,5,6,7-tetrahydrobenzothiophene-3-carboxamide]	< 1000
CC(=O)N1CCCc2c1sc(NC(=O)C1CC1)c2C(=O)NCC1CC1 [Example 7, 7-Acetyl-2-(cyclopropanecarbonylamino)-N-(cyclopropylmethyl)-5,6-dihydro-4H-thieno[2,3-b]pyridine-3-carboxamide]	10000 to 50000
O=C(NCC1CC1)c1c(NC(=O)C2CC2)sc2c1CC(Nc1nnco1)CC2 (centres unmarked) [Example 192, 2-(Cyclopropanecarbonylamino)-N-(cyclopropylmethyl)-5-(1,3,4-oxadiazol-2-ylamino)-4,5,6,7-tetrahydrobenzothiophene-3-carboxamide]	< 1000
